Experimental data reported in PMC6120666 (The EMBO Journal, 2018).

Experiments:
Assay in all cases: Drug affinity chromatography with c-ponatinib and LC-MS/MS (ponatinib interactome)
Format in all cases: binding
[1] = molecular target: T1, proteins of U2OS cell lysate (Homo sapiens, UniProt O14980); settings: XPO1, Exportin-1
T1 construct: Proteins enriched by c-ponatinib from U2OS cell lysate; endogenous in cells; host or cells: U2OS cell lysate
Method in brief: (§1)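 Proteins were identified by nano-UPLC–MS/MS after elution with formic acid and trypsin digestion. They were captured from U2OS lysate (2 mg protein per pulldown, NP-40 buffer) on amine-coupled NHS beads during a 2 h incubation at 4 °C.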

[2] = molecular target: T2, proteins of U2OS cell lysate (Homo sapiens, UniProt O43143); settings: DHX15, Putative pre-mRNA-splicing factor ATP-dependent RNA helicase DHX15
T2 construct: Proteins enriched by c-ponatinib from U2OS cell lysate; endogenous in cells; host or cells: U2OS cell lysate
Method in brief: as §1

[3] = molecular target: T3, proteins of U2OS cell lysate (Homo sapiens, UniProt O43707); settings: ACTN4, Alpha-actinin-4
T3 construct: Proteins enriched by c-ponatinib from U2OS cell lysate; endogenous in cells; host or cells: U2OS cell lysate
Method in brief: as §1

[4] = molecular target: T4, proteins of U2OS cell lysate (Homo sapiens, UniProt P16615); settings: ATP2A2, Sarcoplasmic/endoplasmic reticulum calcium ATPase 2
T4 construct: Proteins enriched by c-ponatinib from U2OS cell lysate; endogenous in cells; host or cells: U2OS cell lysate
Method in brief: as §1

[5] = molecular target: T5, proteins of U2OS cell lysate (Homo sapiens, UniProt P21333); settings: FLNA, Filamin-A
T5 construct: Proteins enriched by c-ponatinib from U2OS cell lysate; endogenous in cells; host or cells: U2OS cell lysate
Method in brief: as §1

[6] = molecular target: T6, proteins of U2OS cell lysate (Homo sapiens, UniProt P34913); settings: EPHX2, Bifunctional epoxide hydrolase 2
T6 construct: Proteins enriched by c-ponatinib from U2OS cell lysate; endogenous in cells; host or cells: U2OS cell lysate
Method in brief: as §1

[7] = molecular target: T7, proteins of U2OS cell lysate (Homo sapiens, UniProt P42684); settings: ABL2, Abelson tyrosine-protein kinase 2
T7 construct: Proteins enriched by c-ponatinib from U2OS cell lysate; endogenous in cells; host or cells: U2OS cell lysate
Method in brief: as §1

[8] = molecular target: T8, proteins of U2OS cell lysate (Homo sapiens, UniProt P49207); settings: RPL34, 60S ribosomal protein L34
T8 construct: Proteins enriched by c-ponatinib from U2OS cell lysate; endogenous in cells; host or cells: U2OS cell lysate
Method in brief: as §1

[9] = molecular target: T9, proteins of U2OS cell lysate (Homo sapiens, UniProt P61981); settings: YWHAG, 14-3-3 protein gamma
T9 construct: Proteins enriched by c-ponatinib from U2OS cell lysate; endogenous in cells; host or cells: U2OS cell lysate
Method in brief: as §1

[10] = molecular target: T10, proteins of U2OS cell lysate (Homo sapiens, UniProt P78527); settings: PRKDC, DNA-dependent protein kinase catalytic subunit
T10 construct: Proteins enriched by c-ponatinib from U2OS cell lysate; endogenous in cells; host or cells: U2OS cell lysate
Method in brief: as §1

[11] = molecular target: T11, proteins of U2OS cell lysate (Homo sapiens, UniProt Q00610); settings: CLTC, Clathrin heavy chain 1
T11 construct: Proteins enriched by c-ponatinib from U2OS cell lysate; endogenous in cells; host or cells: U2OS cell lysate
Method in brief: as §1

[12] = molecular target: T12, proteins of U2OS cell lysate (Homo sapiens, UniProt Q09666); settings: AHNAK, Neuroblast differentiation-associated protein AHNAK
T12 construct: Proteins enriched by c-ponatinib from U2OS cell lysate; endogenous in cells; host or cells: U2OS cell lysate
Method in brief: as §1

[13] = molecular target: T13, proteins of U2OS cell lysate (Homo sapiens, UniProt Q13268); settings: DHRS2, Dehydrogenase/reductase SDR family member 2, mitochondrial
T13 construct: Proteins enriched by c-ponatinib from U2OS cell lysate; endogenous in cells; host or cells: U2OS cell lysate
Method in brief: as §1

[14] = molecular target: T14, proteins of U2OS cell lysate (Homo sapiens, UniProt Q15365); settings: PCBP1, Poly(rC)-binding protein 1
T14 construct: Proteins enriched by c-ponatinib from U2OS cell lysate; endogenous in cells; host or cells: U2OS cell lysate
Method in brief: as §1

[15] = molecular target: T15, proteins of U2OS cell lysate (Homo sapiens, UniProt Q16854); settings: DGUOK, Deoxyguanosine kinase, mitochondrial
T15 construct: Proteins enriched by c-ponatinib from U2OS cell lysate; endogenous in cells; host or cells: U2OS cell lysate
Method in brief: as §1

[16] = molecular target: T16, proteins of U2OS cell lysate (Homo sapiens, UniProt Q92522); settings: H1FX, Histone H1x
T16 construct: Proteins enriched by c-ponatinib from U2OS cell lysate; endogenous in cells; host or cells: U2OS cell lysate
Method in brief: as §1

[17] = molecular target: T17, proteins of U2OS cell lysate (Homo sapiens, UniProt Q9P0K7); settings: RAI14, Ankycorbin
T17 construct: Proteins enriched by c-ponatinib from U2OS cell lysate; endogenous in cells; host or cells: U2OS cell lysate
Method in brief: as §1

[18] = molecular target: T18, proteins of U2OS cell lysate (Homo sapiens, UniProt P09493); settings: captured protein TPM1, Rank 202
T18 construct: Proteins enriched by c-ponatinib from U2OS cell lysate; endogenous in cells; host or cells: U2OS cell lysate
Method in brief: as §1

[19] = molecular target: T19, proteins of U2OS cell lysate (Homo sapiens, UniProt Q9UHB6); settings: captured protein LIMA1, Rank 120
T19 construct: Proteins enriched by c-ponatinib from U2OS cell lysate; endogenous in cells; host or cells: U2OS cell lysate
Method in brief: as §1

T18 sequence (P09493 whole entry): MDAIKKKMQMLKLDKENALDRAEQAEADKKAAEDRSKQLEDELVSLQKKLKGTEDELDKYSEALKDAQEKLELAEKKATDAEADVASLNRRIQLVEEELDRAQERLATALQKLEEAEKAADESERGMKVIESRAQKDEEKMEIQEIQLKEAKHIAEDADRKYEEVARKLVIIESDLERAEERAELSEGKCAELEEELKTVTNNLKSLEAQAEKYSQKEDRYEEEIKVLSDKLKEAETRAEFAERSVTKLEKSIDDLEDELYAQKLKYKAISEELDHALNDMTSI
T14 sequence (Q15365 whole entry): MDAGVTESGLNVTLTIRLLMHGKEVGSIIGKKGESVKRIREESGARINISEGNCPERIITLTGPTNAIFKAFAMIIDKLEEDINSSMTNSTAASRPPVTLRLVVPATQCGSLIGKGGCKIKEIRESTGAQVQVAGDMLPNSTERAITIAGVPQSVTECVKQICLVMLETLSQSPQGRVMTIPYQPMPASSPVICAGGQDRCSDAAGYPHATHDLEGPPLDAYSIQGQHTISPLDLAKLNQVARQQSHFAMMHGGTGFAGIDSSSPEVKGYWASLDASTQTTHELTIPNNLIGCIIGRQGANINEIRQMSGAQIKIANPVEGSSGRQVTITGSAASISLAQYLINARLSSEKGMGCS
T5 sequence (P21333 whole entry): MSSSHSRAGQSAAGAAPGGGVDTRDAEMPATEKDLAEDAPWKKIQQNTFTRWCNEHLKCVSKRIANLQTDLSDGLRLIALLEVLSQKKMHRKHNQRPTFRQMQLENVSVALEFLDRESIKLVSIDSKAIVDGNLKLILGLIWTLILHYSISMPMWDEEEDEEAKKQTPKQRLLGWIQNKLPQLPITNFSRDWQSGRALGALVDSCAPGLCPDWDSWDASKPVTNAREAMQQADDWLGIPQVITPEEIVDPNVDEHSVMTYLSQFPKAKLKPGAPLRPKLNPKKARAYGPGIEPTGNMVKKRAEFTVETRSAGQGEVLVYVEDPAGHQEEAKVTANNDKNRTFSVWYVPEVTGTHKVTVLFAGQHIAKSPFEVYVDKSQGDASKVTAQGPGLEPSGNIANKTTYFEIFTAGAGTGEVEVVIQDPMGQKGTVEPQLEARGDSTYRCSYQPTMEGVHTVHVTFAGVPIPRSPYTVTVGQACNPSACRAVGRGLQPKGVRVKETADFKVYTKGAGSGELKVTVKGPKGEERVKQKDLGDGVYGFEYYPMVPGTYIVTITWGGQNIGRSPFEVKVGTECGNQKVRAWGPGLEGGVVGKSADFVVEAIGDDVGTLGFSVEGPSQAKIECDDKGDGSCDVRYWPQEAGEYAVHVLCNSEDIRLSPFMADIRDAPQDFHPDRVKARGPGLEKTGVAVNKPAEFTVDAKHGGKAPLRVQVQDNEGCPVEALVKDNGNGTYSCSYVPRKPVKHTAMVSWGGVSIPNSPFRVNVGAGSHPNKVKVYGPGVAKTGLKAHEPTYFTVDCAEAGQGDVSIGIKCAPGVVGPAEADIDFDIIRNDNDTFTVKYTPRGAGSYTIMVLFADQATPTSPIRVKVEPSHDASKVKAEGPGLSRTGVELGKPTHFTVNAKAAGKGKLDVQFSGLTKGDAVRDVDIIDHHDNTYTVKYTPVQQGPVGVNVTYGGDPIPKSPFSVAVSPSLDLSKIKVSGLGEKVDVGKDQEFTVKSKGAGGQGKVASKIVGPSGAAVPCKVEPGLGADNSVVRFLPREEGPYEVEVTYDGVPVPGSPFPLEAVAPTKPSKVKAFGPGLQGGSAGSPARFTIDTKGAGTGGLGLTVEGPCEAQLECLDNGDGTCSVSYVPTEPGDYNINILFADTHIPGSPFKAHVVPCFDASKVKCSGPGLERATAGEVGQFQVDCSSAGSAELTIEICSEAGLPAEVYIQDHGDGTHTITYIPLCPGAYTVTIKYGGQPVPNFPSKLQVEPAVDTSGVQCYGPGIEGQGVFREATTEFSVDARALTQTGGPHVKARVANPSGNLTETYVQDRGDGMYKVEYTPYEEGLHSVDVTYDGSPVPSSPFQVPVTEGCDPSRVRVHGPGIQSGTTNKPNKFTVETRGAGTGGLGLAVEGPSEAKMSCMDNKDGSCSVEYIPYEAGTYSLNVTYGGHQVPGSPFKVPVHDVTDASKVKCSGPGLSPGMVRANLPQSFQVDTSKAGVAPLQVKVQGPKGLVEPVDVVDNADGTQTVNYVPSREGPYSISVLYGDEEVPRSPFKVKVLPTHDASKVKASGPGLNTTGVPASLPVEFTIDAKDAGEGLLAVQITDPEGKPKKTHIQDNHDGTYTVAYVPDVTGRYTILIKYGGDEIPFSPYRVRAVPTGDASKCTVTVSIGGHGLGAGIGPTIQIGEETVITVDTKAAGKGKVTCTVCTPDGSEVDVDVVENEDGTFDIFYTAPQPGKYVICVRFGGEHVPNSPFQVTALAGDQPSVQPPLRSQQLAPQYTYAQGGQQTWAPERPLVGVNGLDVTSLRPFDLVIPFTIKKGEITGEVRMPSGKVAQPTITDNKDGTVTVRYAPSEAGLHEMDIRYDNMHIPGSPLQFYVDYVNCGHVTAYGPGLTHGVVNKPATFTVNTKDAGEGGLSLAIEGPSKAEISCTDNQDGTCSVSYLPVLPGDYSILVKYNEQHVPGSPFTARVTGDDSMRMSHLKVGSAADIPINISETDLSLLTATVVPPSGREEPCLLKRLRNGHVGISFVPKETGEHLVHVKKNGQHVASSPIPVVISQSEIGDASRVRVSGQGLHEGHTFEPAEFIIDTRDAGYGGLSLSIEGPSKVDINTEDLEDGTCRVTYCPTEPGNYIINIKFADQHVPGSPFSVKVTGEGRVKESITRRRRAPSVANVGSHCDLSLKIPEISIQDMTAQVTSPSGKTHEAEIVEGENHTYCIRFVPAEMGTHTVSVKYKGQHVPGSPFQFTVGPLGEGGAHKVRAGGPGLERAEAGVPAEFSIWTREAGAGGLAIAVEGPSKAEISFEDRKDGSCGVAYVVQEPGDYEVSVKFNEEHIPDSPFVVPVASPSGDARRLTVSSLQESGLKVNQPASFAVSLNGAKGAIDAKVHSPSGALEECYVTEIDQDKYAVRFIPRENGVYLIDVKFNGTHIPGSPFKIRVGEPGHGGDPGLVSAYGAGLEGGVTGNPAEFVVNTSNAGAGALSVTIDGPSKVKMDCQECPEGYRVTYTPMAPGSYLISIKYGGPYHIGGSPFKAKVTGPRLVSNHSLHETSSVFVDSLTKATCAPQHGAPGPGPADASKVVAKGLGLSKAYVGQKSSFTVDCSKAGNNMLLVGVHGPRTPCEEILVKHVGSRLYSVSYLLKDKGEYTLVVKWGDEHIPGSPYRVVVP
T15 sequence (Q16854 40-277): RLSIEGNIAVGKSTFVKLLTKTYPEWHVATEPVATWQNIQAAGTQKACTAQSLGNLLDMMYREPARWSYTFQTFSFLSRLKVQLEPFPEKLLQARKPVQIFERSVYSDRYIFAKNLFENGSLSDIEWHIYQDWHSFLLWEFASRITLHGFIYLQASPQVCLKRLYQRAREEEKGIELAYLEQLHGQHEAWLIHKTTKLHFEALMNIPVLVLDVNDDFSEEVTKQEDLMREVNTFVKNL
T9 sequence (P61981 whole entry): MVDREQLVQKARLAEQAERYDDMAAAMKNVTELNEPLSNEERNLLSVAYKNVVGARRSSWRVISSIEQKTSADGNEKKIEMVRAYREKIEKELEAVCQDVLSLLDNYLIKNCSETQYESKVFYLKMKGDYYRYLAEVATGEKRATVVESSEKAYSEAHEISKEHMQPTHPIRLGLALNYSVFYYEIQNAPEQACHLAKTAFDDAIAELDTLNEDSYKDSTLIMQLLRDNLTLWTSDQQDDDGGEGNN
T16 sequence (Q92522 whole entry): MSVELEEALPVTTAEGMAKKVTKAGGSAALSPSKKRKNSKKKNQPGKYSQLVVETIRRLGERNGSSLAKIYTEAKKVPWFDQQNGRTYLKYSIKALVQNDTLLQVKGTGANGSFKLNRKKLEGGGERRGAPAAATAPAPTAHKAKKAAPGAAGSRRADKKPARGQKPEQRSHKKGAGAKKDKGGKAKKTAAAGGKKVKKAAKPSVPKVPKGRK
T3 sequence (O43707 whole entry): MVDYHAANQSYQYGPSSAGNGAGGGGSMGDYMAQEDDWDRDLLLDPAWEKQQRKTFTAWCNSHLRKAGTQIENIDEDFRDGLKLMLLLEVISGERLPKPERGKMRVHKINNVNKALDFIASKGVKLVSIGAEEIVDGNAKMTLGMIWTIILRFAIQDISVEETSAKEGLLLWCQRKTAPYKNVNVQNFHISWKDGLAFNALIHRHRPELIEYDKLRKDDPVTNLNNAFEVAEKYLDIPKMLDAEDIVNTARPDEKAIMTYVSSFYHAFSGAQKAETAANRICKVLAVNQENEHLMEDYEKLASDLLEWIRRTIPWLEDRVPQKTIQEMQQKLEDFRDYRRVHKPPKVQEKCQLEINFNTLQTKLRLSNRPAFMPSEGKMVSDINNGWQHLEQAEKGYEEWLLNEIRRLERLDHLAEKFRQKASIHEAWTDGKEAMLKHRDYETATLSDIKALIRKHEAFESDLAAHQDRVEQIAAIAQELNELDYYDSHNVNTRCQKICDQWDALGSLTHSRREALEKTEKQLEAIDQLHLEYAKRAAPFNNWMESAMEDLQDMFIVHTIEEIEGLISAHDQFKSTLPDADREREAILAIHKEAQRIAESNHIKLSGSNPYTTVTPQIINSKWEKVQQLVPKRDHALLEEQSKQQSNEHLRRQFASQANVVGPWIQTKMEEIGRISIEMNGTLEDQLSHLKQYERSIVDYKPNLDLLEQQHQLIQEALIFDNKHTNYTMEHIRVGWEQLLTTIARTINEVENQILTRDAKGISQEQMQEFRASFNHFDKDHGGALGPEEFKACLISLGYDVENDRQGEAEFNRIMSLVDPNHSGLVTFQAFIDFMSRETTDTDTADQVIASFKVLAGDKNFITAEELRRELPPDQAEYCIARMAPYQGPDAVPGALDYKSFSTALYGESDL

## Cc1ccc(C(=O)Nc2ccc(CN3CCN(C)CC3)c(C(F)(F)F)c2)cc1C#Cc1cnc2cccnn12 [PON]
[1]
  Average LFQ PON_WT: 23.5357
[2]
  Average LFQ PON_WT: 20.8395
[3]
  Average LFQ PON_WT: 19.9578
[4]
  Average LFQ PON_WT: 20.9825
[5]
  Average LFQ PON_WT: 25.7064
[6]
  Average LFQ PON_WT: 24.5257
[7]
  Average LFQ PON_WT: 26.1742
[8]
  Average LFQ PON_WT: 21.0301
[9]
  Average LFQ PON_WT: 23.8341
[10]
  Average LFQ PON_WT: 25.5794
[11]
  Average LFQ PON_WT: 26.5716
[12]
  Average LFQ PON_WT: 26.25
[13]
  Average LFQ PON_WT: 24.0178
[14]
  Average LFQ PON_WT: 21.283
[15]
  Average LFQ PON_WT: 23.2666
[16]
  Average LFQ PON_WT: 20.0616
[17]
  Average LFQ PON_WT: 19.7116

## Cc1ccc(C(=O)Nc2ccc(CN3CCN(CCCN)CC3)c(C(F)(F)F)c2)cc1C#Cc1cnc2cccnn12 [c-ponatinib, reference compound]
[18]
  Average LFQ intensity: 21.8321
[19]
  Average LFQ intensity: 23.0824
